Activity calls are given as the source filed them. The rule behind the calls is not given here.
Tests used:
[1] = Acute toxicity in ICR mouse assessed as pathological change in kidney at 100 mg/kg, ip measured after 6 days; assay type: organism-based; conditions: in vivo, 144 h, time 6 day
Bel-7402 [2] = assay: Cell cycle arrest in human Bel-7402 cells assessed as accumulation at S phase at 2 uM measured after 24 hrs by propidium iodide staining based flow cytometry (reference value: 31%); assay type: functional
[3] = AUC (0 to t) in ICR mouse at 10 mg/kg, iv; assay type: ADME, organism-based; set-up: dose 10 mg/kg, route iv; conditions: in vivo
[4] = Toxicity in human HepG2 cells xenografted BALB/c nude mouse assessed as change in body weight at 5 to 10 mg/kg, ip administered once daily for 16 days measured 3 times per week during compound dosing; assay type: organism-based; conditions: in vivo, 384 h, dose 5-10 mg/kg, time 16 day
HepG2 [5] = assay: Induction of apoptosis in human HepG2 cells assessed as increase in cleaved caspase-3 expression at 0.2 to 0.8 uM measured after 48 hrs by Western blot analysis; assay type: functional, cell-based; conditions: dose 0.2-0.8 µM
Bel-7402 [6] = assay: Cell cycle arrest in human Bel-7402 cells assessed as accumulation at G1 phase at 2 uM measured after 24 hrs by propidium iodide staining based flow cytometry (reference value: 38.72%); assay type: functional
HepG2 [7] = assay: Induction of apoptosis in human HepG2 cells assessed as increase in cleaved PARP expression at 0.2 to 0.8 uM measured after 48 hrs by Western blot analysis; assay type: functional, cell-based; conditions: dose 0.2-0.8 µM
Bel-7402 [8] = assay: Inhibition of colony formation in human Bel-7402 cells assessed as reduction in colony size at 0.5 to 2 uM treated every 3 days for 14 days by crystal violet staining based microscopy; assay type: functional, cell-based; conditions: dose 0.5-2 µM, time 14.0 day
HepG2 [9] = assay: Cell cycle arrest in human HepG2 cells assessed as accumulation at S phase at 0.8 uM measured after 24 hrs by propidium iodide staining based flow cytometry (reference value: 32.81%); assay type: functional
[10] = Acute toxicity in ICR mouse assessed as change in AST level at 100 mg/kg, ip measured after 6 days; assay type: organism-based; conditions: in vivo, 144 h, time 6 day
HepG2 [11] = assay: Induction of apoptosis in human HepG2 cells assessed as necrotic cells at 0.4 uM measured after 48 hrs by Annexin V-FITC/propidium iodide staining based flow cytometry (reference value: 2.04%); assay type: functional
Bel-7402 [12] = assay: Cell cycle arrest in human Bel-7402 cells assessed as accumulation at G2/M phase at 0.5 uM measured after 24 hrs by propidium iodide staining based flow cytometry (reference value: 30.29%); assay type: functional
[13] = Cytotoxicity against human L02 cells measured after 72 hrs by MTT assay; assay type: toxicity, cell-based
HepG2 [14] = assay: Induction of apoptosis in human HepG2 cells assessed as necrotic cells at 0.8 uM measured after 48 hrs by Annexin V-FITC/propidium iodide staining based flow cytometry (reference value: 2.04%); assay type: functional
[15] = Acute toxicity in ICR mouse assessed as pathological change in spleen at 100 mg/kg, ip measured after 6 days; assay type: organism-based; conditions: in vivo, 144 h, time 6 day
HepG2 [16] = assay: Inhibition of colony formation in human HepG2 cells at 0.4 to 0.8 uM treated every 3 days for 14 days by crystal violet staining based assay; assay type: functional, cell-based; conditions: dose 0.4-0.8 µM, time 14.0 day
HepG2 [17] = assay: Cell cycle arrest in human HepG2 cells assessed as accumulation at G2/M phase at 0.8 uM measured after 24 hrs by propidium iodide staining based flow cytometry (reference value: 19.93%); assay type: functional
[18] = Clearance in ICR mouse at 10 mg/kg, iv; assay type: ADME, organism-based; conditions: in vivo
HepG2 [19] = assay: Cell cycle arrest in human HepG2 cells assessed as accumulation at G1 phase at 0.2 uM measured after 24 hrs by propidium iodide staining based flow cytometry (reference value: 42.27%); assay type: functional
Bel-7402 [20] = assay: Cell cycle arrest in human Bel-7402 cells assessed as accumulation at G2/M phase at 1 uM measured after 24 hrs by propidium iodide staining based flow cytometry (reference value: 30.29%); assay type: functional
[21] = Terminal half life in ICR mouse at 10 mg/kg, iv; assay type: ADME, organism-based; conditions: in vivo, read-out: beta t1/2 (converted)
HepG2 [22] = assay: Antitumor activity against human HepG2 cells xenografted in BALB/c nude mouse assessed as tumor growth inhibition at 5 mg/kg, ip administered once daily for 16 days relative to control; assay type: functional; conditions: HepG2, 384 h, time 16 day, read-out: TGI
[23] = Toxicity in human HepG2 cells xenografted BALB/c nude mouse assessed as adverse effect at 5 to 10 mg/kg, ip administered once daily for 16 days; assay type: organism-based; conditions: in vivo, 384 h, dose 5-10 mg/kg, time 16 day
[24] = Acute toxicity in ICR mouse assessed as change in creatinine level at 100 mg/kg, ip measured after 6 days; assay type: organism-based; conditions: in vivo, 144 h, time 6 day
HepG2 [25] = assay: Induction of apoptosis in human HepG2 cells assessed as late apoptotic cells at 0.8 uM measured after 48 hrs by Annexin V-FITC/propidium iodide staining based flow cytometry (reference value: 1.66%); assay type: functional
Bel-7402 [26] = assay: Inhibition of colony formation in human Bel-7402 cells at 2 uM treated every 3 days for 14 days by crystal violet staining based assay; assay type: functional, cell-based; conditions: time 14.0 day
HeLa = assay: Antiproliferative activity against human HeLa cells measured after 72 hrs by MTT assay; assay type: functional, cell-based
[27] = Cmax in ICR mouse at 10 mg/kg, iv; assay type: ADME, organism-based; set-up: dose 10 mg/kg, route iv; conditions: in vivo
HepG2 [28] = assay: Cell cycle arrest in human HepG2 cells assessed as accumulation at G2/M phase at 0.4 uM measured after 24 hrs by propidium iodide staining based flow cytometry (reference value: 19.93%); assay type: functional
HepG2 [29] = assay: Induction of apoptosis in human HepG2 cells measured after 48 hrs by Annexin V-FITC/propidium iodide staining based flow cytometry; assay type: functional, cell-based; conditions: dose 0.2-0.8 µM, DDE = dose-dependent effect
HepG2 [30] = assay: Cell cycle arrest in human HepG2 cells assessed as accumulation at G2/M phase at 0.2 uM measured after 24 hrs by propidium iodide staining based flow cytometry (reference value: 19.93%); assay type: functional
Bel-7402 [31] = assay: Cell cycle arrest in human Bel-7402 cells assessed as accumulation at G2/M phase at 2 uM measured after 24 hrs by propidium iodide staining based flow cytometry (reference value: 30.29%); assay type: functional
Bel-7402 [32] = assay: Cell cycle arrest in human Bel-7402 cells assessed as accumulation at S phase at 0.5 uM measured after 24 hrs by propidium iodide staining based flow cytometry (reference value: 31%); assay type: functional
HepG2 [33] = assay: Cell cycle arrest in human HepG2 cells assessed as accumulation at G1 phase at 0.4 uM measured after 24 hrs by propidium iodide staining based flow cytometry (reference value: 42.27%); assay type: functional
[34] = Acute toxicity in ICR mouse assessed as pathological change in liver at 100 mg/kg, ip measured after 6 days; assay type: organism-based; conditions: in vivo, 144 h, time 6 day
HepG2 [35] = assay: Inhibition of colony formation in human HepG2 cells assessed as reduction in colony size at 0.2 to 0.8 uM treated every 3 days for 14 days by crystal violet staining based microscopy; assay type: functional, cell-based; conditions: dose 0.2-0.8 µM, time 14.0 day
[36] = Acute toxicity in ICR mouse assessed as body weight loss at 809 mg/kg, po measured for 6 days; assay type: organism-based; conditions: in vivo, 144 h, time 6 day
HepG2 [37] = assay: Induction of ROS generation in human HepG2 cells measured after 48 hrs by DCFH-DA probe based fluorescence microscopy; assay type: functional, cell-based; conditions: dose 0.2-0.8 µM, DDE = dose-dependent effect
[38] = Acute toxicity in ICR mouse assessed as change in ALT level at 100 mg/kg, ip measured after 6 days; assay type: organism-based; conditions: in vivo, 144 h, time 6 day

Question: With `C[C@H]1CCC/C=C/[C@@H]2C[C@H](O)C[C@H]2[C@H](OC(=O)/C=C/c2ccc(N(C)C)cc2)/C=C/C(=O)O1` as the compound, how does the Activity [1] read?
Answer: Non-Toxic

Question: What about the Activity (Bel-7402 [2]) of the same compound?
Answer: 20.69%

Question: What about the AUC(0-t) [3] of the same compound?
Answer: 4010 ng·h/mL

Question: And the Activity [4]?
Answer: Non-Toxic

Question: And the Activity (HepG2 [5])?
Answer: Active

Question: And the Activity (Bel-7402 [6])?
Answer: 60.5%

Question: What about the Activity (HepG2 [7]) of the same compound?
Answer: Active

Question: And the inhibition (Bel-7402 [8])?
Answer: Active

Question: What about the Activity (HepG2 [9]) of the same compound?
Answer: 23.25%

Question: And the Activity [10]?
Answer: Non-Toxic

Question: What about the Activity (HepG2 [11]) of the same compound?
Answer: 41.57%

Question: And the Activity (Bel-7402 [12])?
Answer: 27.62%

Question: And the IC50 at 72 h [13]?
Answer: 2810 nM

Question: And the Activity (HepG2 [14])?
Answer: 39.85%

Question: What about the Activity [15] of the same compound?
Answer: Non-Toxic

Question: What about the inhibition (HepG2 [16]) of the same compound?
Answer: Active

Question: What about the Activity (HepG2 [17]) of the same compound?
Answer: 15.85%

Question: And the clearance [18]?
Answer: 42.5 mL/min/kg

Question: What about the Activity (HepG2 [19]) of the same compound?
Answer: 48.26%

Question: What about the Activity (Bel-7402 [20]) of the same compound?
Answer: 26.22%

Question: What about the half-life [21] of the same compound?
Answer: 2.08 h

Question: And the inhibition in vivo at 5 mg/kg (HepG2 [22])?
Answer: 34.3%

Question: What about the Activity [23] of the same compound?
Answer: Non-Toxic

Question: What about the Activity [24] of the same compound?
Answer: Non-Toxic

Question: And the Activity (HepG2 [25])?
Answer: 4.24%

Question: What about the inhibition (Bel-7402 [26]) of the same compound?
Answer: Active

Question: And the IC50 (HeLa)?
Answer: 860 nM

Question: What about the Cmax [27] of the same compound?
Answer: 14400 ng/mL

Question: What about the Activity (HepG2 [28]) of the same compound?
Answer: 20.88%

Question: And the Activity (HepG2 [29])?
Answer: Dde

Question: And the Activity (HepG2 [30])?
Answer: 22.32%

Question: What about the Activity (Bel-7402 [31]) of the same compound?
Answer: 18.82%

Question: What about the Activity (Bel-7402 [32]) of the same compound?
Answer: 21.14%

Question: And the Activity (HepG2 [33])?
Answer: 57.76%

Question: What about the Activity [34] of the same compound?
Answer: Non-Toxic

Question: And the inhibition (HepG2 [35])?
Answer: Active

Question: What about the Activity [36] of the same compound?
Answer: Toxic

Question: And the Activity (HepG2 [37])?
Answer: Dde

Question: What about the Activity [38] of the same compound?
Answer: Non-Toxic
